Measurements taken from publication PMC3790851, “Improved Mass Spectrometry Assay For Plasma Hepcidin: Detection and Characterization of a Novel Hepcidin Isoform” (PLoS ONE, 2013).

Legend:
[1] = Effect of solvent of hepcidin-25^+40 on loss of peptide and hepcidin-25 value assignment; type: physicochemical
Protocol: Heavy hepcidin-25^+40 (hepcidin-25^+40 Da; DTHF(^13C9,^15N)P(^13C5,^15N)I(^13C6,^15N)CI(^13C6,^15N) F(^13C9,^15N)CCG(^15N)CCHRSKCGMCCKT disulfide bridged) was obtained from Peptides International (Table 1). Note that due to an isotope content of 98% the actual mass is 1 Da less than the theoretical mass of this peptide. Freeze dried hepcidin-25^+40 was dissolved in H2O in accordance with the manual. An 0.1 nmol/L solution of hepcidin-25^+40 was aliquoted in 12 µL volumes in 200 µL polypropylene tubes and stored at −80°C until use.
As quantification of native hepcidin in a sample is related to the known concentration of the spiked internal standard, the absolute levels of measured hepcidin are highly dependent on the value assignment of the used internal standard. One determining factor concerns proper dissolvent of the lyophilized peptide and whether or not a substantial amount of the internal standard is lost by aggregation or sticking to laboratory plastics during its preparation. Therefore, we compared the effects of three different solvents to prepare hepcidin-25^+40 stock solutions on the measured hepcidin-25 concentration of a series of spiked blank serum samples to which known hepcidin-25 concentrations were added. […] This finding implicates that use of 5% phosphoric acid leads to loss of about 50% of the peptide, while this seems to be the case for about 15% of the peptide when water is used. […] Therefore, 20% acetonitrile was implemented as solvent for the internal standard in our standard operating procedure, which was used throughout the remainder of this study.
Figure 1 Effect on the solvent of hepcidin-25^+40 on hepcidin-25 linearity and value assignment. […] Linearity of measured hepcidin-25 was determined by the formulas: Y = 1.822X+0.097 (5% phosphoric acid); Y = 1.119X+0.494 (water); Y = 0.964X+0.069 (20% acn).

[2] = design: method as in PMID 22222553; conditions: serum, 12 healthy controls; cited from earlier work
[3] = at least; cited from earlier work
Protocol: We conclude that hepcidin-25 results are not changed during 2 years of storage at −80°C, except for a possible small decrease upon freezing. However, after 2 years storage at −80°C, hepcidin results become less precise and individual measurements might become less reliable. Average results for a population may not be affected, but existing differences in hepcidin levels between groups, or correlations of hepcidin with other parameters might be more difficult to assess.

[4] = serum, healthy controls; cited from earlier work
Excerpt: We observed no differences between the various anticoagulants used. We observed, however, a small non significant decrease of hepcidin-25 upon freezing (e.g. for heparin samples at 7 days: total intensive care and control (n = 15): 95% (CV 8%) relative to fresh samples, Table S3). […] However, it should be noted that the reproducibility of the measurements of the smaller isoforms at low concentrations is low, especially the measurements of hepcidin-20 in EDTA plasma samples (Table 2, Table S3). Thus, hepcidin measurements by WCX-TOF MS are no ...

loss of peptide on dissolution in 5% phosphoric acid ([1]; inferred from false high measured hepcidin-25 in spiked blank serum) | loss of peptide on dissolution in water ([1]; inferred from measured hepcidin-25 in spiked blank serum) | measured to nominal hepcidin-25 ratio, internal standard in 20% acetonitril ([1]; spiked blank serum) | Substance | stability at 4°C [2] [days] | stability at -80°C [3] | stability at -20°C [4] [days]
about 50% | about 15% | near 1∶1 ratio | DTHF(^13C9,^15N)P(^13C5,^15N)I(^13C6,^15N)CI(^13C6,^15N) F(^13C9,^15N)CCG(^15N)CCHRSKCGMCCKT disulfide bridged (disulfide) [Hepcidin-25^+40, novel custom made heavy hepcidin-25 isotope, disulfide bridged, internal standard] |  |  | 
 |  |  | hepcidin: hepcidin as measured in plasma or serum, isoform not specified at the place | 6 | 6–8 months | ≥ 42
